Read-outs that look alike come from different tables or passages of the source.
How the values were obtained:
citrated human plasma [1] = assay: Prothrombin time (PT) plasma clotting assay; assay type: biochemical
Experimental: (§1) The inhibitory effect on plasma coagulation was evaluated in the thrombin time (TT), activated partial thromboplastin time (APTT) and prothrombin time (PT) assays by using citrated human plasma as substrate [Bagdy, D. et. al.: Thromb. Haemostas. 67, 325 (1992)]. The TT assay measures the inhibition of a single step, the coagulation of fibrinogen on the action of exogenous thrombin (final concentration 2.5 NIH U/ml). Clotting of plasma in the APTT and PT assays was induced by recalcification. Endogenous thrombin generated could theoretically be present at a final concentration as high as 50 NIH U/ml (APTT, PT). These assays detect the sum of inhibitory actions on fibrin formation and thrombin generation, which includes several proteolytic reactions mediated by either thrombin or other enzymes, e.g. fXa. Anticlotting activity is expressed in CT2, which is the concentration (nM) required to double the clotting time.

clot-bound factor Xa = clot-bound factor Xa (Homo sapiens, UniProt P00742); assay: Enzyme inhibition in platelet-rich plasma clots, chromogenic substrate Moc-D-Chg-Gly-Arg-pNA; assay type: biochemical
Experimental: (§2) Tos-Gly-Pro-Arg-pNA (S1) for thrombin and Moc-D-Chg-Gly-Arg-pNA (S2) for factor Xa, as published (Bajusz, S. et al.: PCT Pub. No. WO97/46576) briefly. The assays were carried out at room temperature in glass tubes and 96-well microtiter plates.
(§3) Solutions, (i) Buffer A: 0.1 M sodium phosphate/0.05 M NaCl (pH 8.5). (ii) Inhibitors: 0.1, 1.0 and 10 mg/ml solutions in buffer A containing 0.02% human albumin. (iii) Substrates: 1 mM of S1 and 2 mM of S2 in distilled water.
(§4) (b) Preparation of plasma clots. Platelet rich plasma samples (200 μl) placed in glass tubes were incubated at room temperature with 80 μl 40 mM CaCl2 for 60 min. The clots were washed with 2 ml aliquots of saline (0.9% NaCl) with gentle agitation to remove unbound enzymes In case of successful washing the optical density of the reaction mixture of wash and S1 is less than 5% of the control. The plasma clot thus obtained was kept under saline in the tube until use.
(§5) (c) Assessment of the enzyme inhibition in the clots. After removal of saline, the plasma clot was incubated at 37° C. with 400 μl inhibitor (or buffer A as negative control) for 5 min. and with 100 μl substrate S1 or S3 for 30 min., then the reaction was stopped with 100 μl 50% acetic acid. 150 μl portions of the reaction mixtures were placed in the wells of a microtiter plate and read at 405 nm (ELISA READER 800, Bio-Tek Instruments Inc. Winooski, Vt., USA). IC50 values were generated from the extinction data graphically.

urokinase (UK) = urokinase (UK) (Homo sapiens, UniProt P00749); assay: Fibrin plate assay, urokinase; assay type: biochemical; details: for IC50: reduction of lysed area to 50% of control, urokinase, read-out: LA50 UK
From the text: (§6) Inhibitory effects of the compounds of the invention on plasmin (PL) and plasmin generation by plasminogen (Plogen) activators, such as tissue plasminogen activator (tPA), and urokinase (UK) were examined by the fibrin plate assay. (See e.g., Bagdy, D., Barabás, E., Bajusz, S., and Széll, E., Thromb. Haemostas., 67:325-330 (1992); Barabás, E. Szell, E. and Bajusz, S, Blood Coagulation and Fibrinolysis, 4: 243 (1993)) The results are shown in Table 1, Column C. With a few exceptions the analogues are somewhat more inhibitory than Efegatran against the three fibrinolytic enzymes.

[2] = target: tissue plasminogen activator (tPA) (Homo sapiens, UniProt P00750); assay: Fibrin plate assay, tissue plasminogen activator; assay type: biochemical; details: reduction of lysed area to 50% of control, read-out: LA50 tPA
From the text: as §6

citrated human plasma [3] = assay: Activated partial thromboplastin time (APTT) plasma clotting assay; assay type: biochemical
Experimental: as §1

plasmin (PL) = plasmin (PL) (Homo sapiens, UniProt P00747); assay: Fibrin plate assay, plasmin; assay type: biochemical; details: reduction of lysed area to 50% of control, read-out: LA50 PL
From the text: as §6

clot-bound thrombin = clot-bound thrombin (Homo sapiens, UniProt P00734); assay: Enzyme inhibition in platelet-rich plasma clots, chromogenic substrate Tos-Gly-Pro-Arg-pNA; assay type: biochemical; details: for IC50: clot-bound thrombin, platelet-rich plasma clot
Experimental: as §2, §3, §4, §5

LPS-treated rats = assay: Survival in a rat model for disseminated intravascular coagulation; assay type: in vivo; details: for Effectiveness on survival compared with reference C (in words): LPS-treated rats; for Survival rate %: rats, 30 mg/kg LPS i.v.
[4] = test system: endotoxin-treated rabbits; assay type: in vivo, rabbit
[5] = test system: citrated human plasma (exogenous thrombin); assay: Thrombin time (TT) plasma clotting assay; assay type: biochemical; details: thrombin 2.5 NIH U/ml
Experimental: as §1

endotoxin-treated rats = assay: Rat model for disseminated intravascular coagulation (fibrin deposition, platelet count, FDP)
Experimental: The effects of compound 1 of the invention and two control anticoagulants, Efegatran (C) and heparin (H) on such phenomena were examined in endotoxin-treated rats [Ford, A. J. and Longridge, D. J.: Br. J. Pharmacol. 110, Suppl.
Male rats were treated with an i.v. bolus injection of 10 mg/kg endotoxin. It was followed by i.v. infusion of saline or the test compounds for four hours. Of compounds 1 and 3, 0.25 mg/kg was given as an initial bolus injection followed by an 0.25 mg/kg/h i.v. infusion for four hours. Heparin (H) was applied similarly, 50 IU/kg as an initial bolus injection followed by an 50 IU/kg/h i.v. infusion for four hours. Control group of animals was treated with 0.9% saline.
The deposition of ^125I-fibrin was investigated in selected organs (liver and kidney. ^125I-fibrinogen was injected 30 min. prior to endotoxin injection. The radioactivities in the tissue samples were measured in a gamma counter (Wallac Wizard 1470). Microthrombi formation in the organs was assessed using the ratio of organ ^125I activity to injected total ^125I activity, defined as the microthrombi index. Changes in this parameter are expressed in percent compared to saline group.
Number of platelet count was determined in an automatic appliance (Sysmex F-800) and related to control values.
Determination of FDP (fibrin degradation products) by Aggristin (Ristocetin) precipitation assay. […]

[6] = 0.75 mg/kg bolus + infusion, 0 hours
[7] = 0.75 mg/kg bolus + infusion, 4 hours
[8] = 0.75 mg/kg bolus + infusion, 5 hours
[9] = 0.75 mg/kg bolus + infusion, 6 hours
[10] = 0.75 mg/kg bolus + infusion, 7 hours
[11] = 0.75 mg/kg bolus + infusion, 8 hours
[12] = 1.5 mg/kg bolus + infusion, 0 hours
[13] = 1.5 mg/kg bolus + infusion, 4 hours
[14] = 1.5 mg/kg bolus + infusion, 5 hours
[15] = 1.5 mg/kg bolus + infusion, 6 hours
[16] = 1.5 mg/kg bolus + infusion, 7 hours
[17] = 1.5 mg/kg bolus + infusion, 8 hours
[18] = endotoxin-treated rabbits, 0.25 mg/kg/h infusion, 2 hrs
[19] = endotoxin-treated rabbits, 0.25 mg/kg/h infusion, 4 hrs
[20] = endotoxin-treated rabbits, 0.5 mg/kg/h infusion, 2 hrs
[21] = endotoxin-treated rabbits, 0.5 mg/kg/h infusion, 4 hrs

plasmin (PL), sequence (P00747 581-810 limits assumed, species assumed): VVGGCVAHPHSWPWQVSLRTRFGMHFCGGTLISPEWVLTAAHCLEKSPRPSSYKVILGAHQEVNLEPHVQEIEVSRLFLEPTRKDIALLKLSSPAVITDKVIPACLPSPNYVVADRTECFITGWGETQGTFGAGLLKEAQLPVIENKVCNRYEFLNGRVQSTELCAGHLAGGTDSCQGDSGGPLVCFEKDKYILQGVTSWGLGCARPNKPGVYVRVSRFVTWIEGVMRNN
plasmin (PL), sequence (P00747 97-580 limits assumed, species assumed): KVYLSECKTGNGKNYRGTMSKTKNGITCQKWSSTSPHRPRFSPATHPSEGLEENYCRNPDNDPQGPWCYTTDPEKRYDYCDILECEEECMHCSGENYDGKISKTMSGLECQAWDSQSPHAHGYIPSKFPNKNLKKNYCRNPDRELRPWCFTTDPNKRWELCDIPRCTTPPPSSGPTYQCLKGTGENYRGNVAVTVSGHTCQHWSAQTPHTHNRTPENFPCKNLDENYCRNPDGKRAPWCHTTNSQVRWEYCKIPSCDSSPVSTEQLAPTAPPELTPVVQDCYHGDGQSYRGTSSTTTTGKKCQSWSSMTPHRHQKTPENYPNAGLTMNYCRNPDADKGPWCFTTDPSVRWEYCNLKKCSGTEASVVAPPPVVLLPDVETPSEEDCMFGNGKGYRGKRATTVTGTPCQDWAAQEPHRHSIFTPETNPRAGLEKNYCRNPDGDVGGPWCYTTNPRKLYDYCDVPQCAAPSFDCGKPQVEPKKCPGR
tissue plasminogen activator (tPA), sequence (P00750 36-562, species assumed): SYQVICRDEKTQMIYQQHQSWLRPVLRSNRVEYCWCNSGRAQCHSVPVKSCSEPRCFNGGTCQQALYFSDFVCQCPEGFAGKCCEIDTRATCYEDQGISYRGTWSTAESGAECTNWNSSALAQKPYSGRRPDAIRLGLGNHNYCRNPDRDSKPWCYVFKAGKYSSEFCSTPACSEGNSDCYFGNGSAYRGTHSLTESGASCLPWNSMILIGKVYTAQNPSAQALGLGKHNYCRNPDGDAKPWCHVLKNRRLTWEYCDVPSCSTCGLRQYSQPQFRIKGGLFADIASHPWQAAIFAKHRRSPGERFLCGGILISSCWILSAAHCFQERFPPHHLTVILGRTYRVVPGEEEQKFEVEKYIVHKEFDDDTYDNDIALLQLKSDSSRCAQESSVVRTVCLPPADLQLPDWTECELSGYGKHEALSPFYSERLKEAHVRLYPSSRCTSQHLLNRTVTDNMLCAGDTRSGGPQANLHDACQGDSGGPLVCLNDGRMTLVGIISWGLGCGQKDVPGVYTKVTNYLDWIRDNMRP
clot-bound factor Xa, sequence (P00742 235-488 limits assumed): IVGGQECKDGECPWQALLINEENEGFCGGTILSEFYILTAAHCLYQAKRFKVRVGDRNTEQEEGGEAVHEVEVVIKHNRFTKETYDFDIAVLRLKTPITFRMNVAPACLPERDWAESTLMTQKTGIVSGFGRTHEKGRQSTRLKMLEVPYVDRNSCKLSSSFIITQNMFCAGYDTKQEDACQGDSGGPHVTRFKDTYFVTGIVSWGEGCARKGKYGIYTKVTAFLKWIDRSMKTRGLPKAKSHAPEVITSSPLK
clot-bound factor Xa, sequence (P00742 41-179 limits assumed): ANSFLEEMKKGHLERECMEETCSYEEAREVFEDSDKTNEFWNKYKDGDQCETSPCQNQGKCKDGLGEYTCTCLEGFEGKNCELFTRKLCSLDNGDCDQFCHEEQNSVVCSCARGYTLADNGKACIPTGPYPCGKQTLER

Structure (SMILES) | CT2 PT (concentration required for doubling the clotting time) (citrated human plasma [1]) [nM] | IC50 (clot-bound factor Xa) [µM] | IC50 (urokinase (UK)) [µM] | IC50 [2] [µM] | CT2 APTT (concentration required for doubling the clotting time) (citrated human plasma [3]) [nM] | IC50 (plasmin (PL)) [µM] | Inhibition of clot-bound thrombin compared with Efegatran (in words) (clot-bound thrombin) | IC50 (clot-bound thrombin) [µM] | Effectiveness on survival compared with reference C (in words) (LPS-treated rats) | Survival rate % (LPS-treated rats; [6]) [%] | Survival rate % (LPS-treated rats; [7]) [%] | Survival rate % (LPS-treated rats; [8]) [%] | Survival rate % (LPS-treated rats; [9]) [%] | Survival rate % (LPS-treated rats; [10]) [%] | Survival rate % (LPS-treated rats; [11]) [%] | Survival rate % (LPS-treated rats; [12]) [%] | Survival rate % (LPS-treated rats; [13]) [%] | Survival rate % (LPS-treated rats; [14]) [%] | Survival rate % (LPS-treated rats; [15]) [%] | Survival rate % (LPS-treated rats; [16]) [%] | other results
CCOC(=O)N[C@H](CC1CCCCCC1)C(=O)N1CCC[C@H]1C(=O)N[C@H](C=O)CCCNC(=N)N [Compound 1, ethoxycarbonyl-D-cycloheptylalanyl-L-prolyl-L-arginine aldehyde] | 1839 | 0.118 | 14 | 10 | 331 | 18 | surpass Efegatran | 0.103 | more effective than reference C | 100 | 100 | 100 | 100 | 90 | 70 | 100 | 100 | 100 | 100 | 100 | Survival rate % (LPS-treated rats; 1.0 mg/kg bolus + infusion, 0 hours): 100%; Survival rate % (LPS-treated rats; 1.0 mg/kg bolus + infusion, 4 hours): 100%; Survival rate % (LPS-treated rats; 1.0 mg/kg bolus + infusion, 5 hours): 100%; Survival rate % (LPS-treated rats; 1.0 mg/kg bolus + infusion, 6 hours): 100%; Survival rate % (LPS-treated rats; 1.0 mg/kg bolus + infusion, 7 hours): 90%; Survival rate % (LPS-treated rats; 1.0 mg/kg bolus + infusion, 8 hours): 90%; Survival rate % (LPS-treated rats; [17]): 100%; Effect on lethality of endotoxin-treated rabbits (in words) ([4]; compared with endotoxin alone): significantly reduce the lethality; Lethality %, 2 hrs [4, 18]: 0%; Lethality no. died/treated animals, 2 hrs [4, 18]: 0/19; Lethality %, 4 hrs [4, 19]: 16%; Lethality no. died/treated animals, 4 hrs [4, 19]: 3/19; Lethality %, 2 hrs [4, 20]: 0%; Lethality no. died/treated animals, 2 hrs [4, 20]: 0/12; Lethality %, 4 hrs [4, 21]: 17%; Lethality no. died/treated animals, 4 hrs [4, 21]: 2/12; CT2 TT (concentration required for doubling the clotting time) [5]: 147 nM; DIC-inhibiting potential (in words) (endotoxin-treated rats): more pronounced than that of either heparin or Efegatran
N=C(N)NCCC[C@@H](C=O)NC(=O)[C@@H]1CCCN1C(=O)[C@H](O)CC1CCCCCC1 [Compound 3, D-cycloheptyllactyl-L-prolyl-L-arginine aldehyde] | 1082 | 0.117 | 85 | 10 | 281 | 21 | surpass Efegatran | 0.095 | more effective than reference C | 100 | 100 | 100 | 100 | 100 | 92 | 100 | 100 | 100 | 100 | 100 | Activity against UK compared with Efegatran (in words) (urokinase (UK)): almost equiactive with Efegatran; Survival rate % (LPS-treated rats; 0.5 mg/kg bolus + infusion, 0 hours): 100%; Survival rate % (LPS-treated rats; 0.5 mg/kg bolus + infusion, 4 hours): 100%; Survival rate % (LPS-treated rats; 0.5 mg/kg bolus + infusion, 5 hours): 100%; Survival rate % (LPS-treated rats; 0.5 mg/kg bolus + infusion, 6 hours): 100%; Survival rate % (LPS-treated rats; 0.5 mg/kg bolus + infusion, 7 hours): 100%; Survival rate % (LPS-treated rats; 0.5 mg/kg bolus + infusion, 8 hours): 80%; Survival rate % (LPS-treated rats; [17]): 92%; Effect on lethality of endotoxin-treated rabbits (in words) ([4]; rabbit, in vivo): significantly reduce the lethality; Lethality %, 2 hrs ([4]; rabbit, in vivo, 0.25 mg/kg): 0%; Lethality %, 4 hrs ([4]; rabbit, in vivo, 0.25 mg/kg): 18%; Lethality no. died/treated animals, 2 hrs ([4]; rabbit, in vivo, 0.25 mg/kg): 0/22; Lethality no. died/treated animals, 4 hrs ([4]; rabbit, in vivo, 0.25 mg/kg): 4/22; CT2 TT (concentration required for doubling the clotting time) [5]: 86 nM

From patent publication US20050070480A1, “Peptide arginals and methods for treating disseminated intravascular coagulation” (priority 2001, published 2005)
